Results: ChEMBL document CHEMBL4619809, “Chemically Induced Degradation of WEE1 Kinase for Difficult to Treat Diseases” (ACS Med Chem Lett, 2020)

What follows are compounds tested against Protein cereblon/Wee1-like protein kinase (Homo sapiens) (UniProt P30291+Q96SW2) (assay: Protac activity at CRBN/WEE1 in human MOLT4 cells assessed as induction of degradation of WEE1 at 1 uM incubated for 6 hrs by immunoblot analysis relative to control). Conditions: MOLT-4.
Type: cell-based

Sequence of Protein cereblon/Wee1-like protein kinase (Homo sapiens) (P30291 whole entry, looked up): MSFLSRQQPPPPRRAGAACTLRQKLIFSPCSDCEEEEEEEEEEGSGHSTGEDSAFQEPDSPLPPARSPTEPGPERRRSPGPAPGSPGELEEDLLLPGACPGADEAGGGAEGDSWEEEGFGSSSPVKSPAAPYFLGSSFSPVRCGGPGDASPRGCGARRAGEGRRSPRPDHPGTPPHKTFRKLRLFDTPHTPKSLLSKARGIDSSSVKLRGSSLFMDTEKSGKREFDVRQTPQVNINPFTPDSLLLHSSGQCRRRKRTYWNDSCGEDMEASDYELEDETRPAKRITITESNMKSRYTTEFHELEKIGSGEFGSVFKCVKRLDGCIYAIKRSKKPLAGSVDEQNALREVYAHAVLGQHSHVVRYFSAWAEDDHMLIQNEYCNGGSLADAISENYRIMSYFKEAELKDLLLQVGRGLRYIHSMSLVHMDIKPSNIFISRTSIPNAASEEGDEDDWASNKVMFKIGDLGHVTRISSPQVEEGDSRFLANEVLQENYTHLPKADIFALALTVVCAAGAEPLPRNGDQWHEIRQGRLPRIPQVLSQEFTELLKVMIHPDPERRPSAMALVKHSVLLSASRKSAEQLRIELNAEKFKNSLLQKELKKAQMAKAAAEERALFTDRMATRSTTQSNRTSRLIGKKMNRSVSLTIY
Sequence of Protein cereblon/Wee1-like protein kinase (Homo sapiens) (Q96SW2 whole entry, looked up): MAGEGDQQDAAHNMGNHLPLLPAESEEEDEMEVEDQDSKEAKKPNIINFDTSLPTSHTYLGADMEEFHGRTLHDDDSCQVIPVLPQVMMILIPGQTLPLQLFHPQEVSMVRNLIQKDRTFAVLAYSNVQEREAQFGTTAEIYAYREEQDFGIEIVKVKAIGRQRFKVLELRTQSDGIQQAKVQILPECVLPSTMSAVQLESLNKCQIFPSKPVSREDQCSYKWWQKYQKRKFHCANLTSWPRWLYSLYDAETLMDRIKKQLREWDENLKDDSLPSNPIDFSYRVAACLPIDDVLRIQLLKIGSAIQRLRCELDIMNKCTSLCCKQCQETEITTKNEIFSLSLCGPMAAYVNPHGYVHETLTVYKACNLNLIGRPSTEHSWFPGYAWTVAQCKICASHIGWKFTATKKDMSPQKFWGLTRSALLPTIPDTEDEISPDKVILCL

| Compound | Activity [%] |
| --- | --- |
| C=CCn1c(=O)c2cnc(Nc3ccc(N4CCN(CCCNC(=O)CCOCCOCCNc5cccc6c5C(=O)N(C5CCC(=O)NC5=O)C6=O)CC4)cc3)nc2n1-c1cccc(C(C)(C)O)n1 (stereo not given) | > 50 |
| C=CCn1c(=O)c2cnc(Nc3ccc(N4CCN(C(=O)CCOCCOCCOCCN5CCN(Cc6ccc(COc7cccc8c7CN([C@H]7CCC(=O)NC7=O)C8=O)cc6)CC5)CC4)cc3)nc2n1-c1cccc(C(C)(C)O)n1 | > 50 |
| C=CCn1c(=O)c2cnc(Nc3ccc(N4CCN(CCCNc5cccc6c5C(=O)N(C5CCC(=O)NC5=O)C6=O)CC4)cc3)nc2n1-c1cccc(C(C)(C)O)n1 (stereo not given) | > 50 |
| C=CCn1c(=O)c2cnc(Nc3ccc(N4CCN(CCCNc5cccc6c5C(=O)N(C5CCC(=O)NC5=O)C6=O)CC4)cc3)nc2n1-c1cccc(C(F)(F)F)n1 (stereo not given) | > 50 |
| C=CCn1c(=O)c2cnc(Nc3ccc(N4CCN(C(=O)CCOCCOCCNc5cccc6c5C(=O)N(C5CCC(=O)NC5=O)C6=O)CC4)cc3)nc2n1-c1cccc(C(C)(C)O)n1 (stereo not given) | > 50 |
| C=CCn1c(=O)c2cnc(Nc3ccc(N4CCN(C(=O)CCOCCNc5cccc6c5C(=O)N(C5CCC(=O)NC5=O)C6=O)CC4)cc3)nc2n1-c1cccc(C(C)(C)O)n1 (stereo not given) | > 50 |

Results, then the compound that gave them:

| Activity [%] | Compound |
| --- | --- |
| > 50 | C=CCn1c(=O)c2cnc(Nc3ccc(N(C)CCCCNc4cccc5c4C(=O)N(C4CCC(=O)NC4=O)C5=O)cc3)nc2n1-c1cccc(C(C)(C)O)n1 (stereo not given) |
| > 50 | C=CCn1c(=O)c2cnc(Nc3ccc(N4CCN(CCCNC(=O)CCOCCOCCOCCOCCNc5cccc6c5C(=O)N(C5CCC(=O)NC5=O)C6=O)CC4)cc3)nc2n1-c1cccc(C(C)(C)O)n1 (stereo not given) |
| 25 to 50 | C=CCn1c(=O)c2cnc(Nc3ccc(N4CCN(C(=O)CCOCCOCCNc5cccc6c5C(=O)N(C5CCC(=O)NC5=O)C6)CC4)cc3)nc2n1-c1cccc(C(C)(C)O)n1 (stereo not given) |
| > 50 | C=CCn1c(=O)c2cnc(Nc3ccc(N4CCN(CCCNc5cccc6c5C(=O)N(C5CCC(=O)NC5=O)C6=O)CC4)cc3)nc2n1-c1cccc(OC)n1 (stereo not given) |
